# Test results published in EP0275998A2, “Pharmaceutical preparation for treatment of hyperacidity in body fluids” (priority 1987, dated 1988).
# Columns and labels:
# [1] = assay type: in vivo, cats
# Experimental: In vivo use of preparations of the invention as antiacidotic agents. […] The recovery of the pH to the normal value follows roughly an exponential course with a time constant of 1-3 minutes. […] Results are given in the appended Figure II.
# [2] = Plasma concentration of various components after i.v. administration of NMG; assay type: in vivo; conditions: cat
# [3] = Titration of rat gastric juice with antacid solutions; assay type: physicochemical; conditions: aqueous solutions: sodium bicarbonate 150 mM, NMG 150 mM, NMGP 20 mg/cc
# Source text: Results are given in the appended Figure III.
smiles,measurement,setting,value
"CNC[C@H](O)[C@@H](O)[C@H](O)[C@H](O)CO [NMG, 1-deoxy-1-(methylamino)-D-glucitol]",urine pH,"[1]; artificially ventilated cats, 1cc/Kg of 300 mM",Parallel increase
same,partial pressure of CO₂ (P CO2),"[1]; artificially ventilated cats, 1cc/Kg of 300 mM isotonic solution",clear decrease
same,time constant of recovery of the pH to the normal value,"[1]; artificially ventilated cats, 1cc/Kg of 300 mM, roughly exponential course",1-3 minutes
same,blood pH,"[1]; artificially ventilated cats, rapid (about 15 sec.) administration of 1cc/Kg of 300 mM isotonic solution, immediate elevation from about 7.4",~7.9
same,effect on respiration,[1]; in vivo,no significant effect
same,effects in the vein through which the solution was administered,"[1]; in vivo, iv",No gross deleterious effects
same,Plasma concentration Potassium,[2]; 1 min. after i.v. NMG 0.3 mmol/kg (before: 4.2),4200 µM
same,Plasma concentration Urea,[2]; 1 min. after i.v. NMG 0.3 mmol/kg (before: 7),6900 µM
same,Plasma concentration Chloride,[2]; 1 min. after i.v. NMG 0.3 mmol/kg (before: 113),112000 µM
same,Plasma concentration Sodium,[2]; 1 min. after i.v. NMG 0.3 mmol/kg (before: 142),145000 µM
same,Plasma concentration Potassium,[2]; 30 min. after i.v. NMG 0.3 mmol/kg (before: 4.2),4200 µM
same,Plasma concentration Urea,[2]; 30 min. after i.v. NMG 0.3 mmol/kg (before: 7),6800 µM
same,Plasma concentration Chloride,[2]; 30 min. after i.v. NMG 0.3 mmol/kg (before: 113),113000 µM
same,Plasma concentration Sodium,[2]; 30 min. after i.v. NMG 0.3 mmol/kg (before: 142),144000 µM
same,Plasma concentration Potassium,[2]; 120 min. after i.v. NMG 0.3 mmol/kg (before: 4.2),4200 µM
same,Plasma concentration Urea,[2]; 120 min. after i.v. NMG 0.3 mmol/kg (before: 7),6600 µM
same,Plasma concentration Chloride,[2]; 120 min. after i.v. NMG 0.3 mmol/kg (before: 113),116000 µM
same,Plasma concentration Sodium,[2]; 120 min. after i.v. NMG 0.3 mmol/kg (before: 142),147000 µM
same,antacid potency in titration of gastric juice,[3],more potent than sodium bicarbonate
